Experimental findings from patent US20160151370A1, “Substituted Benzylpyrazoles” (BAYER PHARMA AKTIENGESELLSCHAFT, priority 2013, published 2016) are described below.

Test [1] deals with T1, catalytic domain of human Bub1 (amino acids 704-1085) (Homo sapiens, UniProt O43683).
T1 construct: catalytic domain of human Bub1 (amino acids 704-1085); His6 (N); made in house; host or cells: Hi5 insect cells
The test is described as follows: Bub1 kinase assay (TR-FRET). The format is biochemical. The note with it: 10 μM ATP, 1 μM peptide substrate, median value, read-out: Biological Assay 1: Bub1 kinase assay median IC50. From the text: Bub1-inhibitory activities of compounds described in the present invention were quantified using a time-resolved fluorescence energy transfer (TR-FRET) kinase assay which measures phosphorylation of the synthetic peptide Biotin-Ahx-[…] (C-terminus in amide form), purchased from e.g. Biosyntan (Berlin, Germany) by the (recombinant) catalytic domain of human Bub1 (amino acids 704-1085), expressed in Hi5 insect cells with an N-terminal His6-tag and purified by affinity-(Ni-NTA) and size exclusion chromatography.
In a typical assay 11 different concentrations of each compound (0.1 nM, 0.33 nM, 1.1 nM, 3.8 nM, 13 nM, 44 nM, 0.15 μM, 0.51 μM, 1.7 μM, 5.9 μM and 20 μM) were tested in duplicate within the same microtiter plate. To this end, 100-fold concentrated compound solutions (in DMSO) were previously prepared by serial dilution (1:3.4) of 2 mM stocks in a clear low volume 384-well source microtiter plate (Greiner Bio-One, Frickenhausen, Germany), from which 50 nL of compounds were transferred into a black low volume test microtiter plate from the same supplier. Subsequently, 2 μL of Bub1 (the final concentration of Bub1 was adjusted depending on the activity of the enzyme lot in order to be within the linear dynamic range of the assay: typically ˜200 ng/mL were used) in aqueous assay buffer [50 mM Tris/HCl pH 7.5, 10 mM magnesium chloride (MgCl2), 200 mM potassium chloride (KCl), 1.0 mM dithiothreitol (DTT), 0.1 mM sodium ortho-vanadate, 1% (v/v) glycerol, 0.01% (w/v) bovine serum albumine (BSA), 0.005% (v/v) Trition X-100 (Sigma), 1× Complete EDTA-free protease inhibitor mixture (Roche)] were added to the compounds in the test plate and the mixture was incubated for 15 min at 22° C. to allow pre-equilibration of the putative enzyme-inhibitor complexes before the start of the kinase reaction, which was initiated by the addition of 3 μL 1.67-fold concentrated solution (in assay buffer) of adenosine-tri-phosphate (ATP, 10 μM final concentration) and peptide substrate (1 μM final concentration). […] Subsequently, the amount of product was evaluated by measurement of the resonance energy transfer from the Eu-chelate-antibody complex recognizing the Phosphoserine residue to the streptavidin-XL665 bound to the biotin moiety of the peptide. To this end, the fluorescence emissions at 620 nm and 665 nm after excitation at 330-350 nm were measured in a TR-FRET plate reader, e.g. a Rubystar or Pherastar (both from BMG Labtechnologies, Offenburg, Germany) or a Viewlux (Perkin-Elmer) and the ratio of the emissions (665 nm/622 nm) was taken as indicator for the amount of phosphorylated substrate. […] IC50 values were calculated by fitting the normalized inhibition data to a 4-parameter logistic equation (Minimum, Maximum, IC50, Hill; Y=Max+(Min−Max)/(1+(X/IC50)Hill)).
In general terms: Time-resolved FRET reads energy transfer from a long-lived donor to a nearby acceptor.

For test [2], the system named is HeLa human cervical cancer cell line. The test is described as follows: Proliferation assay (crystal violet staining). The note with it: 96 h, 4 days incubation, median value, read-out: Biological Assay 2: Proliferation assay (HeLa cell line) median IC50. The format is cell-based.
Description: Cultivated tumor cells (cells were ordered from ATCC) were plated at a density of 3000 cells/well in a 96-well multititer plate in 200 μL of growth medium supplemented 10% fetal calf serum. After 24 hours, the cells of one plate (zero-point plate) were stained with crystal violet (see below), while the medium of the other plates was replaced by fresh culture medium (200 μL), to which the test substances were added in various concentrations (0 μM, as well as in the range of 0.001-10 μM; the final concentration of the solvent dimethyl sulfoxide was 0.5%). The cells were incubated for 4 days in the presence of test substances. Cell proliferation was determined by staining the cells with crystal violet: the cells were fixed by adding 20 μL/measuring point of an 11% glutaric aldehyde solution for 15 minutes at room temperature. After three washing cycles of the fixed cells with water, the plates were dried at room temperature. The cells were stained by adding 100 μL/measuring point of a 0.1% crystal violet solution (pH 3.0). […] Absorbtion was determined by photometry at a wavelength of 595 nm. The change of cell number, in percent, was calculated by normalization of the measured values to the absorbtion values of the zero-point plate (=0%) and the absorbtion of the untreated (0 μm) cells (=100%). The IC50 values were determined by means of a 4 parameter fit.

T1 sequence (O43683 704-1085): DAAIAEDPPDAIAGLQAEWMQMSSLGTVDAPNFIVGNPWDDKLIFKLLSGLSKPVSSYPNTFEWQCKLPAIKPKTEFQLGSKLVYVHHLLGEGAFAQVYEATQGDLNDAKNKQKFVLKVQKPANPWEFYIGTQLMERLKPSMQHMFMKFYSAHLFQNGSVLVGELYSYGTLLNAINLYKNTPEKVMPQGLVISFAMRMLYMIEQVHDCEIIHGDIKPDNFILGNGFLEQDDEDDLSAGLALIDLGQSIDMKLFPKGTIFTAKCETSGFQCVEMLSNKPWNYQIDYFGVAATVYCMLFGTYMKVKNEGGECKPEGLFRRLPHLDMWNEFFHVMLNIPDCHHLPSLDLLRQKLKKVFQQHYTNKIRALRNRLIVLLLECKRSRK

Consider `CCOc1cc(F)c(Cn2nc(-c3ncc(OCCCS(C)(=N)=O)c(Nc4ccncc4)n3)c(C)c2C2CC2)c(F)c1` (racemic) [Example 2-2-1, 2-[5-cyclopropyl-1-(4-ethoxy-2,6-difluorobenzyl)-4-methyl-1H-pyrazol-3-yl]-5-[3-(S-methylsulfonimidoyl)propoxy]-N-(pyridin-4-yl)pyrimidin-4-amine], for which the IC50 in test [1] is 8.4 nM; in test [2], 8200 nM.

In the case of `CCOc1cc(F)c(Cn2nc(-c3ncc(OCCCS(C)(=N)=O)c(Nc4ccncc4)n3)c(C)c2C2CC2)c(F)c1` (single isomer, unassigned; (+)) [Example 2-2-3, (+)-2-[5-cyclopropyl-1-(4-ethoxy-2,6-difluorobenzyl)-4-methyl-1H-pyrazol-3-yl]-5-[3-(S-methylsulfonimidoyl)propoxy]-N-(pyridin-4-yl)pyrimidin-4-amine], the IC50 in test [1] was found to be 5.7 nM.

For `CCOc1cc(F)c(Cn2nc(-c3ncc(OCCCS(C)(=N)=O)c(Nc4ccncc4)n3)c(C)c2C2CC2)c(F)c1` (single isomer, unassigned; (-)) [Example 2-2-2, (−)-2-[5-cyclopropyl-1-(4-ethoxy-2,6-difluorobenzyl)-4-methyl-1H-pyrazol-3-yl]-5-[3-(S-methylsulfonimidoyl)propoxy]-N-(pyridin-4-yl)pyrimidin-4-amine], in test [1], the IC50 amounted to 9.5 nM.

Turning to `CCOc1cc(F)c(Cn2nc(-c3ncc(OCCCS(C)(=O)=NC(=O)C(F)(F)F)c(Nc4ccncc4)n3)c(C)c2C2CC2)c(F)c1` (centres unmarked) [Example 2-1-1, N-{[3-({2-[5-cyclopropyl-1-(4-ethoxy-2,6-difluorobenzyl)-4-methyl-1H-pyrazol-3-yl]-4-(pyridin-4-ylamino)pyrimidin-5-yl}oxy)propyl](methyl)oxido-λ^6-sulfanylidene}-2,2,2-trifluoroacetamide], in test [1], the IC50 was 11 nM.
